Test results reported in US9930888B2, “Composition” (Conopco, Inc., priority 2013, dated 2018).

System: S. epidermidis
Test: bacterial respiration of S. epidermidis suspension in microplate
Assay type: cell-based
Details: lactam pre-blended with hydrotrope, added to remainder of composition, diluted to 11.5 ppm and 0.575 ppm; 20 hours
Method: Test samples were diluted in sterile water to achieve a 11.5 ppm level of lactam. Dilute solution (80 μl) was added to a S. epidermidis suspension (20 μl) of bacteria at a concentration of 8 logs in a microplate. Growth media (100 μl tryptone soya broth) was added to each well of the microplate and incubated for 20 hours. Bacterial respiration was measured every 30 minutes and the results were: • A—lactam+hydrotrope only (respiration of surviving bacteria detected ˜4-5 h) • B—lactam added directly to base formulation (which contains MPG)—no pre-mixing prior to addition (respiration of surviving bacteria detected 4-5 hrs) • C—lactam pre-mixed with hydrotrope and then added to base formulation (respiration of surviving bacteria not detected—20 hrs is max detection time) • D—hydrotrope added to base formulation (respiration of surviving bacteria detected 3-4 hrs). The example below is from data obtained when pre-blending lactams with hydrotrope before adding to the remainder of the composition, and diluting to 11.5 ppm and 0.575 ppm in sterile water in order to assess efficacy against S. epidermidis suspension Dilute solution (80 μl) was added to a S. epidermidis suspension (20 μl) of bacteria at a concentration of 8 logs in a microplate. Growth media (100 μl tryptone soya broth) was added to each well of the microplate and incubated for 20 hours. Bacterial respiration was measured every 30 minutes. Data of the test samples were then compared to un-treated cell suspensions (sterile water added instead of test samples) and percent inhibition calculated.

Row | SMILES | Result (inhibition of bacterial respiration versus water control) [%]
1 | C=C1NC(=O)CC1c1ccccc1F (centres unmarked) [5-methylene-4-(2′-fluorophenyl)-dihydropyrrol-2-one] | 79.4
2 | C=C1NC(=O)C=C1c1ccc(Br)cc1 [5-methylene-4-(4′-bromophenyl)-dihydroprrol-2-one] | 82.5
